# Source: PMC4303209, “A novel phosphatidylinositol 3-kinase (PI3K) inhibitor directs a potent FOXO-dependent, p53-independent cell cycle arrest phenotype characterized by the differential induction of a subset of FOXO-regulated genes” (Breast Cancer Research : BCR, 2014)
# Tested on: MCF-7 breast cancer cells
# Test: Microarray gene expression analysis (Agilent whole human genome 4 x 44K; compound vs DMSO, LIMMA log2 fold change)
# Format: cell-based
# Settings: Apoptosis genes
compound,measurement,setting,value
Oc1cccc(-c2nc(N3CCOCC3)c3oc4ncccc4c3n2)c1 [PI-103],TBX1 log2FC,Gene 6899,0.079
same,TBX5 log2FC,Gene 6910,0.103
same,TBX3 log2FC,Gene 6926,-0.691
same,TCF7L2 log2FC,Gene 6934,0.036
same,TDGF1 log2FC,Gene 6997,0.005
same,PRDX2 log2FC,Gene 7001,0.385
same,TERF1 log2FC,Gene 7013,0.376
same,TERT log2FC,Gene 7015,-0.048
same,TFAP2A log2FC,Gene 7020,-0.507
same,TFAP2B log2FC,Gene 7021,-0.150
same,TFAP4 log2FC,Gene 7023,0.386
same,TGFA log2FC,Gene 7039,-0.533
same,TGFB1 log2FC,Gene 7040,-0.436
same,TGFB3 log2FC,Gene 7043,0.355
same,TGFBR1 log2FC,Gene 7046,0.121
same,TGFBR2 log2FC,Gene 7048,0.950
same,TGM2 log2FC,Gene 7052,-0.690
same,THBS1 log2FC,Gene 7057,-0.908
same,THRA log2FC,Gene 7067,0.660
same,TIA1 log2FC,Gene 7072,0.065
same,TIAL1 log2FC,Gene 7073,0.160
same,TIAM1 log2FC,Gene 7074,-0.173
same,TIMP1 log2FC,Gene 7076,-0.137
same,TJP1 log2FC,Gene 7082,0.317
same,TLE1 log2FC,Gene 7088,0.501
same,TLR2 log2FC,Gene 7097,-0.157
same,TLR3 log2FC,Gene 7098,0.801
same,NR2E1 log2FC,Gene 7101,-0.112
same,TMF1 log2FC,Gene 7110,0.594
same,TNF log2FC,Gene 7124,-1.866
same,TNFAIP1 log2FC,Gene 7126,-0.271
same,TNFAIP3 log2FC,Gene 7128,-0.853
same,TNFRSF1A log2FC,Gene 7132,-0.921
same,TOP2A log2FC,Gene 7153,0.914
same,TP53 log2FC,Gene 7157,0.057
same,TP53BP2 log2FC,Gene 7159,0.347
same,TP73 log2FC,Gene 7161,-0.255
same,TPD52L1 log2FC,Gene 7164,0.154
same,TPT1 log2FC,Gene 7178,0.376
same,HSP90B1 log2FC,Gene 7184,0.295
same,TRAF1 log2FC,Gene 7185,-0.626
same,TRAF3 log2FC,Gene 7187,-0.946
same,TRAF5 log2FC,Gene 7188,0.350
same,TRAF6 log2FC,Gene 7189,-0.154
same,TRIO log2FC,Gene 7204,0.335
same,TRPS1 log2FC,Gene 7227,0.634
same,PHLDA2 log2FC,Gene 7262,-3.120
same,TWIST1 log2FC,Gene 7291,0.425
same,TNFRSF4 log2FC,Gene 7293,0.091
same,TYRO3 log2FC,Gene 7301,0.021
same,UBA52 log2FC,Gene 7311,0.306
same,UBB log2FC,Gene 7314,0.036
same,UBC log2FC,Gene 7316,0.333
same,UBE2B log2FC,Gene 7320,0.652
same,UBE2D3 log2FC,Gene 7323,-0.368
same,UCN log2FC,Gene 7349,0.293
same,UCP2 log2FC,Gene 7351,0.166
same,UNG log2FC,Gene 7374,-0.352
same,VAV1 log2FC,Gene 7409,0.641
same,VAV2 log2FC,Gene 7410,0.038
same,VCP log2FC,Gene 7415,-0.262
same,VDAC1 log2FC,Gene 7416,-0.421
same,VDR log2FC,Gene 7421,-1.024
same,VEGFB log2FC,Gene 7423,0.125
same,VHL log2FC,Gene 7428,-0.079
same,WFS1 log2FC,Gene 7466,-0.599
same,WNT5A log2FC,Gene 7474,0.134
same,WNT7A log2FC,Gene 7476,-0.086
same,WNT7B log2FC,Gene 7477,-0.378
same,WNT10B log2FC,Gene 7480,-0.488
same,WNT11 log2FC,Gene 7481,-0.088
same,WNT9A log2FC,Gene 7483,0.041
same,WRN log2FC,Gene 7486,0.379
same,WT1 log2FC,Gene 7490,-0.652
same,XDH log2FC,Gene 7498,0.004
same,XPA log2FC,Gene 7507,0.468
same,XRCC2 log2FC,Gene 7516,-0.599
same,XRCC4 log2FC,Gene 7518,0.561
same,YWHAB log2FC,Gene 7529,0.178
same,YWHAE log2FC,Gene 7531,0.050
same,YWHAG log2FC,Gene 7532,-0.883
same,YWHAH log2FC,Gene 7533,-0.481
same,YWHAZ log2FC,Gene 7534,-0.301
same,ZNF16 log2FC,Gene 7564,0.344
same,PCGF2 log2FC,Gene 7703,-0.113
same,DAP3 log2FC,Gene 7818,0.276
same,BTG2 log2FC,Gene 7832,-1.051
same,PAX8 log2FC,Gene 7849,0.485
same,FZD5 log2FC,Gene 7855,-0.196
same,SCG2 log2FC,Gene 7857,0.168
same,NR4A3 log2FC,Gene 8013,0.337
same,LHX3 log2FC,Gene 8022,0.039
same,RASSF7 log2FC,Gene 8045,0.194
same,FOSL1 log2FC,Gene 8061,-2.531
same,CUL5 log2FC,Gene 8065,-0.235
same,FXR1 log2FC,Gene 8087,0.653
same,HMGA2 log2FC,Gene 8091,-1.508
same,GDF5 log2FC,Gene 8200,-0.438
same,RBM10 log2FC,Gene 8241,-0.115
same,AXIN1 log2FC,Gene 8312,0.422
same,NME5 log2FC,Gene 8382,0.271
same,PLA2G6 log2FC,Gene 8398,-0.123
same,SRPX log2FC,Gene 8406,0.201
same,STK24 log2FC,Gene 8428,-0.049
same,NSMAF log2FC,Gene 8439,0.165
same,DYRK2 log2FC,Gene 8445,-0.467
same,CUL4A log2FC,Gene 8451,0.376
same,CUL3 log2FC,Gene 8452,0.00335
same,CUL2 log2FC,Gene 8453,0.251
same,CUL1 log2FC,Gene 8454,0.207
same,KLF11 log2FC,Gene 8462,1.202
same,OGT log2FC,Gene 8473,0.352
same,IKBKG log2FC,Gene 8517,-0.216
same,CBX4 log2FC,Gene 8535,-0.090
same,API5 log2FC,Gene 8539,-0.497
same,YARS log2FC,Gene 8565,-0.500
same,MADD log2FC,Gene 8567,0.749
same,UNC5C log2FC,Gene 8633,0.011
same,AKR1C3 log2FC,Gene 8644,0.528
same,NCOA1 log2FC,Gene 8648,0.476
same,DYNLL1 log2FC,Gene 8655,-1.055
same,IRS2 log2FC,Gene 8660,0.876
same,BECN1 log2FC,Gene 8678,0.354
same,PEA15 log2FC,Gene 8682,0.569
same,HYAL2 log2FC,Gene 8692,-0.333
same,TRADD log2FC,Gene 8717,0.506
same,TNFRSF25 log2FC,Gene 8718,-0.549
same,RIPK1 log2FC,Gene 8737,-0.336
same,CRADD log2FC,Gene 8738,-0.080
same,HRK log2FC,Gene 8739,0.399
same,RIPK2 log2FC,Gene 8767,0.379
same,TNFRSF6B log2FC,Gene 8771,-1.304
same,FADD log2FC,Gene 8772,-0.617
same,TNFRSF18 log2FC,Gene 8784,-0.038
same,TNFRSF10D log2FC,Gene 8793,-0.508
same,TNFRSF10B log2FC,Gene 8795,-0.908
same,TNFRSF10A log2FC,Gene 8797,-0.907
same,TRIM24 log2FC,Gene 8805,0.826
same,NRP1 log2FC,Gene 8829,-0.252
same,SYNGAP1 log2FC,Gene 8831,-0.399
same,SOCS2 log2FC,Gene 8835,0.381
same,CFLAR log2FC,Gene 8837,-0.542
same,HDAC3 log2FC,Gene 8841,-0.248
same,ALKBH1 log2FC,Gene 8846,-0.111
same,TSC22D1 log2FC,Gene 8848,0.388
same,CDK5R1 log2FC,Gene 8851,-0.328
same,ALDH1A2 log2FC,Gene 8854,0.042
same,IER3 log2FC,Gene 8870,-2.265
same,ARHGEF7 log2FC,Gene 8874,0.044
same,SPHK1 log2FC,Gene 8877,-0.416
same,SQSTM1 log2FC,Gene 8878,0.782
same,SGPL1 log2FC,Gene 8879,-0.0047
same,TAX1BP1 log2FC,Gene 8887,1.267
same,BCL10 log2FC,Gene 8915,0.116
same,MBD4 log2FC,Gene 8930,0.294
same,NOL3 log2FC,Gene 8996,0.486
